{"source": "paper doi:10.1101/2021.04.08.439011v1", "about": "(biorxiv, 2021)", "key": {"ABL1(F317I)": {"molecular_target": "ABL1(F317I) (Homo sapiens, UniProt P00519, F317I)", "sequence (P00519 whole entry F317I)": "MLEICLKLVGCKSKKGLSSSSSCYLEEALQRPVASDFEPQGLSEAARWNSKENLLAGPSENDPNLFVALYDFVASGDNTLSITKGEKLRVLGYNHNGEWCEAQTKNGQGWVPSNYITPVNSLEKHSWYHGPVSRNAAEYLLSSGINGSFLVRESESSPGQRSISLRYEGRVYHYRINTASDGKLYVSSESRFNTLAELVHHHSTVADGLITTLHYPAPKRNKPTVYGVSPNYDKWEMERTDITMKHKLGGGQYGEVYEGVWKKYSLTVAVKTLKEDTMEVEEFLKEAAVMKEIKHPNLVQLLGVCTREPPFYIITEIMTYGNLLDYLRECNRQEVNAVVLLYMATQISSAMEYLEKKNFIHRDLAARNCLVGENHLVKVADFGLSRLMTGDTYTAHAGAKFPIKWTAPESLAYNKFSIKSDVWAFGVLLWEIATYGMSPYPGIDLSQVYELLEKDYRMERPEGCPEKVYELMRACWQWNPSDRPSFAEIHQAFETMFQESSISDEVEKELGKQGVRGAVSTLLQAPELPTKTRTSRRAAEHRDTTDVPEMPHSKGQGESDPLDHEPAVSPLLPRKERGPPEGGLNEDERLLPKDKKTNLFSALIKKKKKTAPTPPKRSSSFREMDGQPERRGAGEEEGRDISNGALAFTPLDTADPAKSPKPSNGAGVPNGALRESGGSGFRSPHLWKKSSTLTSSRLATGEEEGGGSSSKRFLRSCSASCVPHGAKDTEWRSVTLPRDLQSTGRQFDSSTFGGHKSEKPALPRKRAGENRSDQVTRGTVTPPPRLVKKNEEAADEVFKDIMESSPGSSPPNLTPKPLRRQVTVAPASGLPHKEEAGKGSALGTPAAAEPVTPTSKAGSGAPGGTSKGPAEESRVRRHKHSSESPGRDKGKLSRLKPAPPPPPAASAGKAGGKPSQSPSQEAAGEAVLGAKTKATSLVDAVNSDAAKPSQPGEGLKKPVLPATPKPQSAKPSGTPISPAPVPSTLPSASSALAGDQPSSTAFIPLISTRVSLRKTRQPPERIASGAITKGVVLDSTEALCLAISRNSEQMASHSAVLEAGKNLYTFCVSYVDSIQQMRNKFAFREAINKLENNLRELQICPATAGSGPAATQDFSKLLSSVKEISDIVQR", "details": "1 µM, binder"}, "ABL1-phosphorylated": {"molecular_target": "ABL1-phosphorylated (Homo sapiens, UniProt P00519)", "sequence (P00519 whole entry)": "as the sequence (P00519 whole entry F317I) above, with I317F counted along it", "details": "1 µM; binder"}, "ACVR1": {"molecular_target": "ACVR1 (Homo sapiens, UniProt Q04771)", "details": "1 µM; binder"}, "ASK1": {"molecular_target": "ASK1 (Homo sapiens, UniProt Q99683)", "details": "1 µM; binder"}, "ASK2": {"molecular_target": "ASK2 (Homo sapiens, UniProt O95382)", "details": "1 µM; binder"}, "BRSK2": {"molecular_target": "BRSK2 (Homo sapiens, UniProt Q8IWQ3)", "sequence (Q8IWQ3 whole entry)": "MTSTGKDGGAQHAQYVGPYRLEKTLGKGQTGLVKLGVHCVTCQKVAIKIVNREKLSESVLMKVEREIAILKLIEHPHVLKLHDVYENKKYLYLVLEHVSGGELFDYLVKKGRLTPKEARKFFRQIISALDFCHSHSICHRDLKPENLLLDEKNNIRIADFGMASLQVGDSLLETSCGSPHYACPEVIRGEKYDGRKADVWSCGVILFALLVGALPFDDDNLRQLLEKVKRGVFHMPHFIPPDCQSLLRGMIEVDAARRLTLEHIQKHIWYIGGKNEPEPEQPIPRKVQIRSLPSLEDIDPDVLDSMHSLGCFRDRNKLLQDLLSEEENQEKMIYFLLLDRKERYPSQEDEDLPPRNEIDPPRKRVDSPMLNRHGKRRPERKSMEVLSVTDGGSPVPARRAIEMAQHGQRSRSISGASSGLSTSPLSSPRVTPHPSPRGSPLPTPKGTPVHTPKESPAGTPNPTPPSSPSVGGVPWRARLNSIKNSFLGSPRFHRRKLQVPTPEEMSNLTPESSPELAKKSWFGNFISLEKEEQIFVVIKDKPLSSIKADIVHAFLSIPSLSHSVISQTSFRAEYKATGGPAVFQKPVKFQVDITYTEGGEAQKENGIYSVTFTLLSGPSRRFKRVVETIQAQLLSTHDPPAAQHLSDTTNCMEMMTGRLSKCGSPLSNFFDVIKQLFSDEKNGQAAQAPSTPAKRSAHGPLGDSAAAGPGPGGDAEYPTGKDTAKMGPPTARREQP", "details": "1 µM; binder"}, "CDK8": {"molecular_target": "CDK8 (Homo sapiens, UniProt P49336)", "details": "1 µM; binder"}, "CSK": {"molecular_target": "CSK (Homo sapiens, UniProt P41240)", "details": "1 µM; binder"}, "CSNK2A1": {"molecular_target": "CSNK2A1 (Homo sapiens, UniProt P68400)", "details": "1 µM; binder"}, "DDR1": {"molecular_target": "DDR1 (Homo sapiens, UniProt Q08345)", "details": "1 µM; binder"}, "DMPK": {"molecular_target": "DMPK (Homo sapiens, UniProt Q09013)", "details": "1 µM; binder"}, "EGFR(G719C)": {"molecular_target": "EGFR(G719C) (Homo sapiens, UniProt P00533, G719C)", "details": "1 µM; binder"}, "ERK5": {"molecular_target": "ERK5 (Homo sapiens, UniProt Q13164)", "details": "1 µM; binder"}, "FGFR1": {"molecular_target": "FGFR1 (Homo sapiens, UniProt P11362)", "details": "1 µM; binder"}, "GRK3": {"molecular_target": "GRK3 (Homo sapiens, UniProt P35626)", "sequence (P35626 whole entry)": "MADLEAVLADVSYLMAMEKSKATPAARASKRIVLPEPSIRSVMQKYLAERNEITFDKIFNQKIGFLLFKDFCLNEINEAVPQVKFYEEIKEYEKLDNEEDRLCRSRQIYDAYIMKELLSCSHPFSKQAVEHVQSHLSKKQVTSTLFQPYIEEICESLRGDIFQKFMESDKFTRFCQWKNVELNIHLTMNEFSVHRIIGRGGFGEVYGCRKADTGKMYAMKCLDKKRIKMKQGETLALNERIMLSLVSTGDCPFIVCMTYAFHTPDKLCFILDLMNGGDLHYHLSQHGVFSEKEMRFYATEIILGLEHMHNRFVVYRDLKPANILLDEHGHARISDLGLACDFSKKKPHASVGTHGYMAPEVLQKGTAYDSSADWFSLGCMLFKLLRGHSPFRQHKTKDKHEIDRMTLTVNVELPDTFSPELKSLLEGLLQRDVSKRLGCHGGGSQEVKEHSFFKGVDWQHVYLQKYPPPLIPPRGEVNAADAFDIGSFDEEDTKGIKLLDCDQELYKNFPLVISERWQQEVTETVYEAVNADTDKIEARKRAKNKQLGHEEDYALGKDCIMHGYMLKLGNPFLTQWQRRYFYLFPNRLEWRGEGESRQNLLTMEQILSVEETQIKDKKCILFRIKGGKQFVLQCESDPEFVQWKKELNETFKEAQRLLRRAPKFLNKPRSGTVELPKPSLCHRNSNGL", "details": "1 µM; binder"}, "GSK3B": {"molecular_target": "GSK3B (Homo sapiens, UniProt P49841)", "details": "1 µM; binder"}, "MEK1": {"molecular_target": "MEK1 (Homo sapiens, UniProt Q02750)", "sequence (Q02750 whole entry)": "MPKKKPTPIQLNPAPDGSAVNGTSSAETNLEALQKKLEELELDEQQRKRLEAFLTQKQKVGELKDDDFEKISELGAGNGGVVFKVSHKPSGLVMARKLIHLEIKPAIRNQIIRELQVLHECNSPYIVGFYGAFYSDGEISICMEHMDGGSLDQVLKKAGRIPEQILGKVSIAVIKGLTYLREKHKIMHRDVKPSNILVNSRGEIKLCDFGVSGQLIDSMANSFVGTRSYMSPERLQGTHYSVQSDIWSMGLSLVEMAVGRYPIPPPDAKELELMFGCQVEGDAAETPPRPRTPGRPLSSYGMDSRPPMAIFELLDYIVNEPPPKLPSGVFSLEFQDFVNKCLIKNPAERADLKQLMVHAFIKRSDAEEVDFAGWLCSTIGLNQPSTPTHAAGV", "details": "1 µM; binder"}, "MEK4": {"molecular_target": "MEK4 (Homo sapiens, UniProt P45985)", "details": "1 µM; binder"}, "MEK6": {"molecular_target": "MEK6 (Homo sapiens, UniProt P52564)", "sequence (P52564 whole entry)": "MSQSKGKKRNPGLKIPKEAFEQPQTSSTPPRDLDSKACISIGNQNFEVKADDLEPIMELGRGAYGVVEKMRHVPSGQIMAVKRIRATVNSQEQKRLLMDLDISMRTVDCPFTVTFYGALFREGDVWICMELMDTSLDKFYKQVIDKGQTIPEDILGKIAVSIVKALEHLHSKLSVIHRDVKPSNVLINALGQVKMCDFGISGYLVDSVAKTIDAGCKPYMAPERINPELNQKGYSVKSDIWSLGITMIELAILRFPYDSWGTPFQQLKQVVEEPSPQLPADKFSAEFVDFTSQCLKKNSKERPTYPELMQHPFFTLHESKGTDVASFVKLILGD", "details": "1 µM; binder"}, "MYLK4": {"molecular_target": "MYLK4 (Homo sapiens, UniProt Q86YV6)", "details": "1 µM; binder"}, "NDR2": {"molecular_target": "NDR2 (Homo sapiens, UniProt Q9Y2H1)", "details": "1 µM; binder"}, "NEK5": {"molecular_target": "NEK5 (Homo sapiens, UniProt Q6P3R8)", "sequence (Q6P3R8 whole entry)": "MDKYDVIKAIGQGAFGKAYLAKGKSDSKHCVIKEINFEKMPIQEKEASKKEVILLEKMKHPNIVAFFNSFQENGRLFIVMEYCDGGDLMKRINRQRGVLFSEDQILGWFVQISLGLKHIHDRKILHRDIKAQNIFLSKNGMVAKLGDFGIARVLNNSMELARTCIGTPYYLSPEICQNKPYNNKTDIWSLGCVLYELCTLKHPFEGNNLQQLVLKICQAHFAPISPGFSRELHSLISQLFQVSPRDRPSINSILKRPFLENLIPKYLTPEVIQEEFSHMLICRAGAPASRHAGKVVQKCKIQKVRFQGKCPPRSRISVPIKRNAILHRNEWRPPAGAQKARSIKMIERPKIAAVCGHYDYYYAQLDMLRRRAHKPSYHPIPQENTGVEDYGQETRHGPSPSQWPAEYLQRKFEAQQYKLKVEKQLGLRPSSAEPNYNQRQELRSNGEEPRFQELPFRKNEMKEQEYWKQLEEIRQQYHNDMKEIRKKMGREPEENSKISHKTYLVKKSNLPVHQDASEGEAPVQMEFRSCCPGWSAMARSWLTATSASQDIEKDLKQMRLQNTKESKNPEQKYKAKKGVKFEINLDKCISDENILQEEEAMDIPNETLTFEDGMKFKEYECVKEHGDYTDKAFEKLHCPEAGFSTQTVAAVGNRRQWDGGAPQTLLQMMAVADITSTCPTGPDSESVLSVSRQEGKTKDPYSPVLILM", "details": "1 µM; binder"}, "PAK3": {"molecular_target": "PAK3 (Homo sapiens, UniProt O75914)", "details": "1 µM; binder"}, "PIK3CD": {"molecular_target": "PIK3CD (Homo sapiens, UniProt O00329)", "details": "1 µM; binder"}, "PIM2": {"molecular_target": "PIM2 (Homo sapiens, UniProt Q9P1W9)", "details": "1 µM; binder"}, "PIP5K1A": {"molecular_target": "PIP5K1A (Homo sapiens, UniProt Q99755)", "details": "1 µM; binder"}, "ROCK2": {"molecular_target": "ROCK2 (Homo sapiens, UniProt O75116)", "details": "1 µM; binder"}, "SRPK2": {"molecular_target": "SRPK2 (Homo sapiens, UniProt P78362)", "details": "1 µM; binder"}, "TBK1": {"molecular_target": "TBK1 (Homo sapiens, UniProt Q9UHD2)", "sequence (Q9UHD2 whole entry)": "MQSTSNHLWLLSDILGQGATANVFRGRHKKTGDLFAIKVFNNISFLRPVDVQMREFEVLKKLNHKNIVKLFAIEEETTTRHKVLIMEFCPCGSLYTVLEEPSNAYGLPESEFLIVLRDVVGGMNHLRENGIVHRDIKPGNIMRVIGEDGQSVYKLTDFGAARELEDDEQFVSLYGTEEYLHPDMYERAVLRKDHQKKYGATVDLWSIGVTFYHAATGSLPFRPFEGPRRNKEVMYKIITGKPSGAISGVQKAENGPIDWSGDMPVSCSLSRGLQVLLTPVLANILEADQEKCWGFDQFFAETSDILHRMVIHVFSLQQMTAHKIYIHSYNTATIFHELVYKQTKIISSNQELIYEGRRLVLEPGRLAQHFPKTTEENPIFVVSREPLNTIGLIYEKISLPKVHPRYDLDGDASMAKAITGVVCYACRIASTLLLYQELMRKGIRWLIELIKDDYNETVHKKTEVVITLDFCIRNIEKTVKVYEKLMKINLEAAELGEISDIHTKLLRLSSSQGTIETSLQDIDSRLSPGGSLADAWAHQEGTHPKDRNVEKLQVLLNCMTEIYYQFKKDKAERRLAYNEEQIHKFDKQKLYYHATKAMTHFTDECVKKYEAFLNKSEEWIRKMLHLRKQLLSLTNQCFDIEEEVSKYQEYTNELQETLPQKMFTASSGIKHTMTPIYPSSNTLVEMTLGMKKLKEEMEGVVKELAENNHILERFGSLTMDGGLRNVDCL", "details": "1 µM; binder"}, "WNK1": {"molecular_target": "WNK1 (Homo sapiens, UniProt Q9H4A3)", "details": "1 µM; binder"}}, "note": "Read-outs that look alike come from different tables or passages of the source.", "data": [{"compound": "CNc1ncc2cc(-c3ccc(-c4cccc(C)n4)cc3Cl)c(=O)n(C[C@H]3OC[C@H](N)CO3)c2n1", "note": "[compound 6, G-5555]", "values": [{"measurement": "Percent Control", "setting": "ABL1(F317I); nonphosphorylated", "value": 100, "unit": "%"}, {"measurement": "Percent Control", "setting": "ABL1(F317I); phosphorylated", "value": 96, "unit": "%"}, {"measurement": "Percent Control", "setting": "ABL1-phosphorylated", "value": 95, "unit": "%"}, {"measurement": "Percent Control", "setting": "ACVR1", "value": 100, "unit": "%"}, {"measurement": "Percent Control", "setting": "ASK1", "value": 71, "unit": "%"}, {"measurement": "Percent Control", "setting": "ASK2", "value": 70, "unit": "%"}, {"measurement": "Percent Control", "setting": "BRSK2", "value": 100, "unit": "%"}, {"measurement": "Percent Control", "setting": "CDK8", "value": 100, "unit": "%"}, {"measurement": "Percent Control", "setting": "CSK", "value": 85, "unit": "%"}, {"measurement": "Percent Control", "setting": "CSNK2A1", "value": 98, "unit": "%"}, {"measurement": "Percent Control", "setting": "DDR1", "value": 53, "unit": "%"}, {"measurement": "Percent Control", "setting": "DMPK", "value": 100, "unit": "%"}, {"measurement": "Percent Control", "setting": "EGFR(G719C)", "value": 100, "unit": "%"}, {"measurement": "Percent Control", "setting": "ERK5", "value": 52, "unit": "%"}, {"measurement": "Percent Control", "setting": "FGFR1", "value": 100, "unit": "%"}, {"measurement": "Percent Control", "setting": "GRK3", "value": 72, "unit": "%"}, {"measurement": "Percent Control", "setting": "GSK3B", "value": 100, "unit": "%"}, {"measurement": "Percent Control", "setting": "MEK1", "value": 1, "unit": "%"}, {"measurement": "Percent Control", "setting": "MEK4", "value": 9.6, "unit": "%"}, {"measurement": "Percent Control", "setting": "MEK6", "value": 30, "unit": "%"}, {"measurement": "Percent Control", "setting": "MYLK4", "value": 100, "unit": "%"}, {"measurement": "Percent Control", "setting": "NDR2", "value": 100, "unit": "%"}, {"measurement": "Percent Control", "setting": "NEK5", "value": 100, "unit": "%"}, {"measurement": "Percent Control", "setting": "PAK3", "value": 100, "unit": "%"}, {"measurement": "Percent Control", "setting": "PIK3CD", "value": 97, "unit": "%"}, {"measurement": "Percent Control", "setting": "PIM2", "value": 100, "unit": "%"}, {"measurement": "Percent Control", "setting": "PIP5K1A", "value": 67, "unit": "%"}, {"measurement": "Percent Control", "setting": "ROCK2", "value": 90, "unit": "%"}, {"measurement": "Percent Control", "setting": "SRPK2", "value": 70, "unit": "%"}, {"measurement": "Percent Control", "setting": "TBK1", "value": 68, "unit": "%"}, {"measurement": "Percent Control", "setting": "WNK1", "value": 69, "unit": "%"}]}]}
